The numbers were not newly measured in US10894026B2, “Pharmaceutical compositions comprising a fumaric acid ester and method for the preparation thereof” (PHARMATHEN S.A., priority 2016, dated 2021), which cites them from elsewhere.

Counter-ions that a name gives are not always drawn.

In the case of `COC(=O)/C=C/C(=O)OC` [Dimethyl fumarate, (E)-2-butenedioic acid dimethyl ester], the solubility in methanol entry (methanol) is “sparingly soluble”. Moreover, the solubility in water entry (water) is given as “insoluble”.
